From patent publication US10899910B2, “Quaternary cationic polymers” (ECOLAB USA, INC., priority 2016, dated 2021)

Columns and labels:
[1] = tested on: bacterial spores or thermophiles; test: Anti-spore and anti-thermophile activity; assay type: cell-based; details: about 20 ppm; for Log Reduction: vs control
Experimental: The effect of the compounds on bacterial spores or thermophiles was also tested. Compounds 1 and 4 were incubated separately with spores or thermophiles at a concentration of about 20 ppm, and the reduction in concentration was measured at four time points (See Table 3).

[2] = tested on: mixture of aerobic populations from more than 30 cooling systems in North America; test: Non-oxidative antimicrobial efficiency test in cooling water (ASTM E645-02a); assay type: cell-based, bacteria (specific species not identified); details: at the tested concentrations
Experimental: Antimicrobial efficiency of the synthesized compounds was tested using a non-oxidative antimicrobial efficiency test procedure according to ASTM method for microbiocide efficiency in cooling water (E645-02a, 2005). The bacteria used in the efficacy testing comprised a mixture of aerobic populations from more than 30 cooling systems in North America. The specific species were not identified. Those species were grown on R2A agar.
In one experiment, various concentrations (0 ppm, 5 ppm, 10 ppm, 20 ppm, 30 ppm, 40 ppm, and 50 ppm) of Compound 1 were applied to bacteria in water. The log 10 concentration in colony forming units (CFU/ml) was measured at four time points (0 min, 60 min, 240 min, and 1440 min).
The microbial activity of Compounds 1-4 at a concentration of 50 ppm was tested according to the same procedure described above.
The antimicrobial activity of Compound 4 was tested using the same procedures as described above.

[3] = tested on: collection of aerobic bacteria from 30 water samples in cooling towers across North America; test: Biofilm reduction (biofilm inhibition test, stain absorbance at 590 nm); assay type: cell-based; details: for (Comp. - Single Quat 2)*100 / Single Quat 2: biofilm reduction relative to Single Quat 2
Experimental: Biofilm reduction experiments were conducted to test the efficacy of multi-quaternary cationic polymers compared to single quaternary compounds. Two different compositions were prepared containing single quaternary compounds: a composition (Single Quat 1) comprising about 50% by weight bisoctyl dimethyl ammonium chloride (CAS #5538-94-3) and about 5-10% by weight glycerin; and a composition (Single Quat 2) comprising about 50% by weight didecyl-dimethyl ammonium chloride (CAS #7173-51-5) and about 10-30% by weight ethanol. The test bacteria comprised a collection of aerobic bacteria from 30 water samples in cooling towers across North America. Different concentrations of cationic polymer salts and single quaternary compounds were tested ranging from about 0.8 ppm to about 1000 ppm. Using the biofilm inhibition test protocols, the absorbed stains were extracted and absorbance was measured at 590 nm. The biofilm reduction was calculated by comparing the absorbance of treated vs untreated controls, then averaged over six replicates.

[4] = Surface tension measurement (Tracker tensiometer); assay type: physicochemical; details: room temperature
Experimental: Surface tension measurements were conducted on a Tracker tensiometer (Teclis Instruments) at room temperature. Various concentrations of surfactant solutions were prepared and measurements were conducted.
The surface tension as a function of concentration of the cationic surfactant samples were measured and are listed in Table 2, where NT means not tested.

[5] = Corrosion bubble cell test (Linear Polarization Resistance); details: 2 ppm with 1% 2ME synergist; CO2-saturated brine/hydrocarbon, 80° C.; three hours baseline (Tables 8, 9)
Experimental: (§1) Cationic polymer salts were evaluated for corrosion performance as compared to a C12-C18 alkyl dimethyl benzyl ammonium chloride via a bubble test procedure. The bubble test simulates low flow areas where little or no mixing of water and oil occurs. The test was conducted using brine (80% of the brine being 3% sodium chloride brine and 20% of the brine being a hydrocarbon containing 75% LVT-200 kerosene oil and 25% xylene). The brine was placed into kettles and purged with carbon dioxide. The brine was continually purged with carbon dioxide to saturate the brine prior to starting the test. After the test began, the test cell was blanketed with carbon dioxide one hour prior to electrode insertion and through the duration of the test to maintain saturation. The kettles were stirred at 150 revolutions per minute (rpm) for the duration of the test to maintain thermal equilibrium at 80° C. The corrosion rate was measured by Linear Polarization Resistance (LPR) techniques. The working electrode used was carbon steel. The counter and reference electrodes were both 1018 carbon steel. The electrodes were all cleaned and polished prior to testing. Data were collected for three hours before 20 ppm of each of the compositions (containing 2 ppm of each of various pentaquaternary cationic polymer salts or the comparative C12-C18 alkyl dimethyl benzyl ammonium chloride and 1% 2-mercaptoethanol (2ME) as synergist in an organic solvent) was dosed into its respective cell. Data were collected overnight. A low concentration of the compositions was used to differentiate between the compositions.
Corrosion bubble cell tests were performed according to the method of Example A1 to evaluate a hexaquaternary cationic polymer salt for corrosion performance as compared to a C12-C18 alkyl dimethyl benzyl ammonium chloride. Data were collected for three hours before 20 ppm of each of the compositions (containing 2 ppm of a hexaquaternary cationic polymer salt or the comparative C12-C18 alkyl dimethyl benzyl ammonium chloride and 1% 2ME as synergist in an organic solvent) was dosed into its respective cell. Data were collected overnight. A low concentration of the compositions was used to differentiate between the compositions.
as §1, with “six” for “three”, “polyethyleneimine-based” for “pentaquaternary”, “cell. However, for the comparative composition, data was only collected three hours before addition of the compositions.” for “cell.”

SMILES: CCCCCCCCCCCCCCCCCC[N+](C)(C)CC(O)CN(CCN(CC(O)C[N+](C)(C)C)CC(O)C[N+](C)(C)CCCCCCCCCCCCCCCCCC)CCN(CC(O)C[N+](C)(C)C)CC(O)C[N+](C)(C)CCCCCCCCCCCCCCCCCC.[Cl-].[Cl-].[Cl-].[Cl-].[Cl-] (centres unmarked) [Compound 4]
- Log cfu/ml ([1]; contact time 0 min): 2.53 Log cfu/ml
- Log Reduction ([1]; contact time 0 min): −0.04
- Log cfu/ml ([1]; contact time 60 min): 1.6 Log cfu/ml
- Log Reduction ([1]; contact time 60 min): 0.74
- Log cfu/ml ([1]; contact time 240 min): 0.00 Log cfu/ml
- Log Reduction ([1]; contact time 240 min): 2.48
- Log cfu/ml ([1]; contact time 1440 min): 1.78 Log cfu/ml
- Log Reduction ([1]; contact time 1440 min): 0.75
- antimicrobial activity [2]: significant antimicrobial activity

SMILES: CCCCCCCCCCCCCCCCCC[N+](C)(C)CC(O)CN(CCN(CCN(CC(O)C[N+](C)(C)C)CC(O)C[N+](C)(C)CCCCCCCCCCCCCCCCCC)CC(O)C[N+](C)(C)C)CC(O)C[N+](C)(C)C.[Cl-].[Cl-].[Cl-].[Cl-].[Cl-] (centres unmarked) [Compound 9]
- Biofilm reduction ([3]; active conc. 0.8 ppm): 20.5%
- (Comp. - Single Quat 2)*100 / Single Quat 2 ([3]; active conc. 0.8 ppm): 314.7%
- Biofilm reduction ([3]; active conc. 1.6 ppm): 35.9%
- (Comp. - Single Quat 2)*100 / Single Quat 2 ([3]; active conc. 1.6 ppm): −9.6%
- Biofilm reduction ([3]; active conc. 3.0 ppm): 41.2%
- (Comp. - Single Quat 2)*100 / Single Quat 2 ([3]; active conc. 3.0 ppm): −43.2%
- Biofilm reduction ([3]; active conc. 6.0 ppm): 45.4%
- (Comp. - Single Quat 2)*100 / Single Quat 2 ([3]; active conc. 6.0 ppm): −11.1%
- Biofilm reduction ([3]; active conc. 8.0 ppm): 62.6%
- (Comp. - Single Quat 2)*100 / Single Quat 2 ([3]; active conc. 8.0 ppm): −8.6%
- Biofilm reduction ([3]; active conc. 12.0 ppm): 70.9%
- (Comp. - Single Quat 2)*100 / Single Quat 2 ([3]; active conc. 12.0 ppm): −13.2%
- Biofilm reduction ([3]; active conc. 16.0 ppm): 79.0%
- (Comp. - Single Quat 2)*100 / Single Quat 2 ([3]; active conc. 16.0 ppm): −15.5%
- Biofilm reduction ([3]; active conc. 25.0 ppm): 76.8%
- (Comp. - Single Quat 2)*100 / Single Quat 2 ([3]; active conc. 25.0 ppm): −15.9%
- Biofilm reduction ([3]; active conc. 31.0 ppm): 46.9%
- (Comp. - Single Quat 2)*100 / Single Quat 2 ([3]; active conc. 31.0 ppm): −50.8%
- Biofilm reduction ([3]; active conc. 50.0 ppm): 77.6%
- (Comp. - Single Quat 2)*100 / Single Quat 2 ([3]; active conc. 50.0 ppm): −15.9%
- Biofilm reduction ([3]; active conc. 62.0 ppm): 90.7%
- (Comp. - Single Quat 2)*100 / Single Quat 2 ([3]; active conc. 62.0 ppm): −0.4%
- Biofilm reduction ([3]; active conc. 100.0 ppm): 97.3%
- (Comp. - Single Quat 2)*100 / Single Quat 2 ([3]; active conc. 100.0 ppm): 41.9%
- Biofilm reduction ([3]; active conc. 125.0 ppm): 98.9%
- (Comp. - Single Quat 2)*100 / Single Quat 2 ([3]; active conc. 125.0 ppm): 88.6%
- Biofilm reduction ([3]; active conc. 250.0 ppm): 99.5%
- (Comp. - Single Quat 2)*100 / Single Quat 2 ([3]; active conc. 250.0 ppm): 55.3%
- Biofilm reduction ([3]; active conc. 500.0 ppm): 99.6%
- (Comp. - Single Quat 2)*100 / Single Quat 2 ([3]; active conc. 500.0 ppm): 23.7%
- Biofilm reduction ([3]; active conc. 1000.0 ppm): 99.6%
- (Comp. - Single Quat 2)*100 / Single Quat 2 ([3]; active conc. 1000.0 ppm): 33.5%
- reduction in biofilm formation ([3]; at concentrations about 100 ppm): greater than 95%
- Surface tension ([4]; concentration 0.010 %): 73.11 mN/m
- Surface tension ([4]; concentration 0.025 %): 69.16 mN/m
- Surface tension ([4]; concentration 0.050 %): 60.77 mN/m
- Surface tension ([4]; concentration 0.100 %): 54.69 mN/m
- Surface tension ([4]; concentration 0.200 %): 52.05 mN/m
- Surface tension ([4]; concentration 0.500 %): 50.09 mN/m
- Surface tension ([4]; concentration 1.000 %): 49.38 mN/m
- % Protection [5]: 60%
